From PubChem BioAssay (NCI)
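96-well plates; 48 h exposure; 5 concentrations. Endpoints by linear interpolation between flanking doses. Not reached: highest tested concentration assigned. Definition used: TGI = concentration required for complete inhibition of growth.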

The compounds below were run on T-47D breast (assay: NCI-60 cell line screen, 48 h).
In the case of CCc1nc(N)nc(N)c1-c1ccc2nn(-c3ccccc3)[n+]([O-])c2c1, the TGI is reported as 31.7 µM. For O=C(O)/C=N\Nc1nc2ccccc2[nH]1, the TGI was > 100 µM. For CC(=O)OCCn1cnc2nc(Nc3ccccc3)nc(Cl)c21, the TGI was > 100 µM. Nc1nc(N)c2[nH]c(CNc3ccc(C(=O)O)cc3)nc2n1 was tested, and the TGI was > 100 µM. In the case of CCC1(CC)SCc2nc3ccccc3n21, the TGI is reported as > 100 µM. For C[C@]12CC[C@H](O)CC1=CC[C@@H]1[C@@H]2CC[C@]2(C)C(=O)[C@@H](N3CCOCC3)C[C@@H]12, the TGI was > 100 µM. CNn1c(-c2ccccc2)n[nH]c1=O was tested, and the TGI was > 100 µM. With COc1ccc(CC2c3cc(Oc4cc(CC5c6cc(OC)c(OC)cc6CCN5C)ccc4O)c(OC)cc3CCN2C)cc1 (stereo not given) the TGI was 12.8 µM. For COc1ccc(C(C)NNC(=O)c2ccncc2)c(OC)c1 (stereo not given), the TGI was > 100 µM. In the case of CC(C)(C)OC(=O)NCC(O)CNC(=O)OC(C)(C)C, the TGI is reported as > 100 µM. For O=[N+]([O-])c1cc2oc(COc3ccccc3)nc2cc1Cl, the TGI was 81.4 µM. With Cc1ccc(S(=O)(=O)N/N=C/C(=C/c2ccc(Cl)cc2)CC(/C=N/NS(=O)(=O)c2ccc(C)cc2)=C\c2ccc(Cl)cc2)cc1 the TGI was 19.2 µM. For CC(C)(C)c1cc(C(P(=O)(c2ccccc2)c2ccccc2)P(=O)(c2ccccc2)c2ccccc2)cc(C(C)(C)C)c1O, the TGI was > 10 µM. CC(C)(C)C(=O)OCC1CCC[N+]2(C)CCCCC12 (stereo not given) was tested, and the TGI was > 100 µM. NS(=O)(=O)c1nn2c(Br)c(-c3ccccc3)nc2s1 gave a TGI of 12.2 µM. Work on CCN(CC)c1c(N(CC)CC)c(=O)c1=O yielded a TGI of 10.4 µM. For CN(C)Cc1cc(C(=O)/C=C/c2ccc(Cl)cc2)cc(CN(C)C)c1O, the TGI was > 100 µM. In the case of O=[N+]([O-])c1ccc(Cl)c(C=NC23CC4CC(CC(C4)C2)C3)c1, the TGI is reported as > 10 µM.

These compounds were tested on RPMI-8226 leukemia (assay: NCI-60 cell line screen, 48 h).
CCc1nc(N)nc(N)c1-c1ccc2nn(-c3ccccc3)[n+]([O-])c2c1 showed a TGI of 35.7 µM. For O=C(O)/C=N\Nc1nc2ccccc2[nH]1, the TGI was > 100 µM. With CC(=O)OCCn1cnc2nc(Nc3ccccc3)nc(Cl)c21 the TGI was > 100 µM. For Nc1nc(N)c2[nH]c(CNc3ccc(C(=O)O)cc3)nc2n1, the TGI was > 100 µM. CCC1(CC)SCc2nc3ccccc3n21 gave a TGI of 65.7 µM. For C[C@]12CC[C@H](O)CC1=CC[C@@H]1[C@@H]2CC[C@]2(C)C(=O)[C@@H](N3CCOCC3)C[C@@H]12, the TGI was > 100 µM. In the case of CNn1c(-c2ccccc2)n[nH]c1=O, the TGI is reported as > 100 µM. With COc1ccc(CC2c3cc(Oc4cc(CC5c6cc(OC)c(OC)cc6CCN5C)ccc4O)c(OC)cc3CCN2C)cc1 (stereo not given) the TGI was 10.1 µM. For COc1ccc(C(C)NNC(=O)c2ccncc2)c(OC)c1 (stereo not given), the TGI was > 100 µM. In the case of CC(C)(C)OC(=O)NCC(O)CNC(=O)OC(C)(C)C, the TGI is reported as > 100 µM. In the case of O=[N+]([O-])c1cc2oc(COc3ccccc3)nc2cc1Cl, the TGI is reported as > 100 µM. Cc1ccc(S(=O)(=O)N/N=C/C(=C/c2ccc(Cl)cc2)CC(/C=N/NS(=O)(=O)c2ccc(C)cc2)=C\c2ccc(Cl)cc2)cc1 showed a TGI of 9.11 µM. In the case of CC(C)(C)c1cc(C(P(=O)(c2ccccc2)c2ccccc2)P(=O)(c2ccccc2)c2ccccc2)cc(C(C)(C)C)c1O, the TGI is reported as > 7.73 µM. CC(C)(C)C(=O)OCC1CCC[N+]2(C)CCCCC12 (stereo not given) was tested, and the TGI was > 100 µM. NS(=O)(=O)c1nn2c(Br)c(-c3ccccc3)nc2s1 showed a TGI of 15.5 µM. Work on CCN(CC)c1c(N(CC)CC)c(=O)c1=O yielded a TGI of 4.91 µM. CN(C)Cc1cc(C(=O)/C=C/c2ccc(Cl)cc2)cc(CN(C)C)c1O gave a TGI of 42.6 µM. With O=[N+]([O-])c1ccc(Cl)c(C=NC23CC4CC(CC(C4)C2)C3)c1 the TGI was > 10 µM.

Each compound was assayed on MDA-MB-435 (assay: NCI-60 cell line screen, 48 h).
For CCc1nc(N)nc(N)c1-c1ccc2nn(-c3ccccc3)[n+]([O-])c2c1, the TGI was 19.5 µM. In the case of O=C(O)/C=N\Nc1nc2ccccc2[nH]1, the TGI is reported as > 100 µM. With CC(=O)OCCn1cnc2nc(Nc3ccccc3)nc(Cl)c21 the TGI was > 100 µM. Nc1nc(N)c2[nH]c(CNc3ccc(C(=O)O)cc3)nc2n1 was tested, and the TGI was > 100 µM. In the case of CCC1(CC)SCc2nc3ccccc3n21, the TGI is reported as 68 µM. With C[C@]12CC[C@H](O)CC1=CC[C@@H]1[C@@H]2CC[C@]2(C)C(=O)[C@@H](N3CCOCC3)C[C@@H]12 the TGI was > 100 µM. For CNn1c(-c2ccccc2)n[nH]c1=O, the TGI was > 100 µM. For COc1ccc(CC2c3cc(Oc4cc(CC5c6cc(OC)c(OC)cc6CCN5C)ccc4O)c(OC)cc3CCN2C)cc1 (stereo not given), the TGI was 9.88 µM. COc1ccc(C(C)NNC(=O)c2ccncc2)c(OC)c1 (stereo not given) was tested, and the TGI was > 100 µM.
